Assay [1] addresses horse serum butyrylcholinesterase (BChE) (Equus caballus, UniProt P81908).
The next assay has as its target Electric eel AChE (Electrophorus electricus, UniProt O42275).

Sequence of horse serum butyrylcholinesterase (BChE) (P81908 whole entry): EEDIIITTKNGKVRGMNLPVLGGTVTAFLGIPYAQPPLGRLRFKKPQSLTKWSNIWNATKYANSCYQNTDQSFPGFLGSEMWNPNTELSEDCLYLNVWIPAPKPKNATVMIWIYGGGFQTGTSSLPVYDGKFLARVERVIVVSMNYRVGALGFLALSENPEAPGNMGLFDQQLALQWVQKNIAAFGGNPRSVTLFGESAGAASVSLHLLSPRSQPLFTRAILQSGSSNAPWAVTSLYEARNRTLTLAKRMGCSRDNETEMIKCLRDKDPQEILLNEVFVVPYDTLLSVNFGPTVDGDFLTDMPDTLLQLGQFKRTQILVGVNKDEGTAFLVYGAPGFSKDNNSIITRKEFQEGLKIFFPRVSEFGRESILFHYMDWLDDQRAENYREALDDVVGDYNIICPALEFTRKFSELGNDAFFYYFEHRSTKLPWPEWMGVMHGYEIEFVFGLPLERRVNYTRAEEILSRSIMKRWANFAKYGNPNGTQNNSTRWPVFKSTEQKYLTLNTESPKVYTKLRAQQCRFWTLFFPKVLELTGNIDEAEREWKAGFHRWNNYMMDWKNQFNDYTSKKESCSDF
Sequence of Electric eel AChE (O42275 24-633): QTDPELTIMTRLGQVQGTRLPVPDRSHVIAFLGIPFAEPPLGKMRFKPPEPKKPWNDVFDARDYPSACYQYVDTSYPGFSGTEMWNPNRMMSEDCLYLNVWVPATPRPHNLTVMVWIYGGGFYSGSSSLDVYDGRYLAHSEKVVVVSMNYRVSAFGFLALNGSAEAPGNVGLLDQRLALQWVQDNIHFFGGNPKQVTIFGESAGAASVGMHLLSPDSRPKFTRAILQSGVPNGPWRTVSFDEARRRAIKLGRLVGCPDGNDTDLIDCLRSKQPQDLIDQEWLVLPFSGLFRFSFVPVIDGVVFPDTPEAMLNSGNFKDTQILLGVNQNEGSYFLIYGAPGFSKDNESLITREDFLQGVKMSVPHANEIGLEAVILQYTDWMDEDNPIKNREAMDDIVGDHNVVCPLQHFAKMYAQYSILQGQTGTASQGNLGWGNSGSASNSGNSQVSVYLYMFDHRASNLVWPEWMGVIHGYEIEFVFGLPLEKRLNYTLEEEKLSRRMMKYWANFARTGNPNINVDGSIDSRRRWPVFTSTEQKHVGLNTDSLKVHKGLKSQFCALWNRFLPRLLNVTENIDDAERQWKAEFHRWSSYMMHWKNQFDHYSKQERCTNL

For the compound `COc1ccc2c(=O)oc3c(OC)cc(CCN(C)C)c4c(=O)oc1c2c34` [Compound 1, 1-(2-dimethylaminoethyl)-3,8-dimethoxychromeno[5,4,3-cde]chromene-5,10-dione], the “Effect on BChE” value in assay [1] was “no effect on BChE”.
Consider `COc1c(O)cc2c3c1-c1ccccc1C[C@H]3NCC2` [Compound 2, 1-methoxy-5,6,6a,7-tetrahydro-4H-dibenzo[de,g]quinolin-2-ol (6aR)], for which the “Effect on BChE” value in assay [1] is “effects on neither AChE nor BChE”. The “Effect on AChE” value at Electric eel AChE is on record as “effects on neither AChE nor BChE”.

The record behind these values is publication PMC3526713 (Journal of natural products, 2006).
